Experimental data from patent EP4737445A1, “NOVEL SATURATED HETEROCYCLE-SUBSTITUTED HETEROARYL-CARBONOHYDRAZONOYL DICYANIDE COMPOUND AND USE THEREOF” (Korea Institute of Science and Technology, priority 2023, dated 2025).
Like-named read-outs stand apart in the source and are kept apart here. One block for each compound: values may come before it.

How the values were obtained:
Assay type in all cases: cell-based
Tau-BiFC cells = assay: Cell viability (stained nuclei count) in Tau-BiFC cells
Description: (§1) To screen for new tau aggregation inhibitors, a Tau-BiFC cell model that facilitates observation of tau oligomer formation in living cells was used. Tau-BiFC cells were dispensed into a 384-well plate, and the next day, the compounds prepared according to Examples 1 to 46 were treated at concentrations of 1, 3, and 10 µM, respectively, together with Forskolin (treatment concentration 30 µM), which is a compound that induces tau aggregation by activating the tau phosphorylation enzyme PKA. After 48 hours, nuclei within cells were stained using Hoechst (treatment concentration 2 µg/mL), and BiFC fluorescence intensity was automatically quantified using Operetta (Perkin Elmer) to count the stained nuclei in each well from the entire plate. The group treated only with Forskolin, which induces tau aggregation, was set as the reference point with 100% tau aggregation state, and the effect was confirmed by the formula "BiFC fluorescence intensity by the compounds synthesized according to the Examples of the disclosure/(fluorescence intensity of the control group treated only with Forskolin that induces tau aggregation - fluorescence intensity of the untreated control group) × 100". In addition, the degree of cytotoxicity induced by the newly synthesized compounds was also calculated using the formula "(number of stained nuclei in the compound-treated group/number of stained nuclei in the Forskolin-treated group) × 100", with the group treated only with Forskolin as the reference point at 100% viability. From the treatment results, substances that inhibit intracellular tau aggregation were identified through screening from a series of candidates based on the criteria of 70% or more tau aggregation inhibition and 100% cell viability at a compound treatment concentration of 10 µM.
(§2) To confirm the tau aggregation inhibitory effect according to the concentration of the compounds screened in Experimental Example 1, the screened compounds were treated to Tau-BiFC cells at concentrations of 0.03, 0.1, 0.3, 1, 3, 10, and 30 µM, respectively, together with Forskolin (treatment concentration 30 µM), which is a tau aggregation-inducing substance. After 48 hours, cell images were examined to analyze the tau aggregation reaction and degree of cytotoxicity. The IC50 and toxicity of the compounds were analyzed by nonlinear regression analysis using Prism software (GraphPad). The calculated results for representative compounds are shown in Table 3 below: Tau aggregation inhibitory effect and cell viability of novel compounds.

TDP-43 protein = biological target: T1, TDP-43 protein (Homo sapiens, UniProt Q13148); assay: TDP-43 aggregation inhibition in TDP-43-BiFC cell model (Forskolin-induced); conditions: for inhibition at 3 µM: read-out: TDP-43 protein aggregation inhibitory effect: Aggregation inhibitory effect (%) (@3 uM)
T1 construct: BiFC fluorescent-protein fragments (two complementary halves); expressed in transfected cells
Description: (§3) To screen for new TDP-43 aggregation inhibitors, a TDP-43-BiFC cell model that facilitates observation of TDP-43 aggregate formation in living cells was used. Specifically, TDP-43-BiFC cells were dispensed into a 384-well plate, and the next day, the compounds prepared according to Examples 1 to 46 were treated at concentrations of 3 and 10 µM, respectively, together with Forskolin (treatment concentration 30 µM), which is a compound that induces TDP-43 aggregation by activating the phosphorylation enzyme PKA. After 48 hours, nuclei within cells were stained using Hoechst (treatment concentration 1 µg/mL), and BiFC fluorescence intensity was automatically quantified using Operetta (PerkinElmer) to count the stained nuclei in each well from the entire plate. The group treated only with Forskolin, which induces TDP-43 aggregation, was set as the reference point with 100% TDP-43 aggregation state, and the effect was confirmed by the formula "(BiFC fluorescence intensity by the compounds synthesized according to the Examples of the disclosure - fluorescence intensity of the untreated control group)/(fluorescence intensity of the control group treated only with Forskolin that induces TDP-43 aggregation - fluorescence intensity of the untreated control group) × 100". In addition, the degree of cytotoxicity induced by the newly synthesized compounds was also calculated using the formula "(number of stained nuclei in the compound-treated group/number of stained nuclei in the Forskolin-treated group) × 100", with the group treated only with Forskolin as the reference point at 100% viability. From the treatment results, substances that inhibit intracellular TDP-43 aggregation were identified through screening from a series of candidates based on the criteria of 80% or more TDP-43 aggregation inhibition and 60% cell viability at a compound treatment concentration of 3 µM.
(§4) Furthermore, to confirm the TDP-43 aggregation inhibitory effect according to the concentration of the compounds screened in Experimental Example 3, the screened compounds were treated to […] at concentrations of 0.003, 0.01, 0.03, 0.1, 0.3, 1, 3, and 10 µM, respectively, together with Forskolin (treatment concentration 30 µM), which is a TDP-43 aggregation-inducing substance. After 48 hours, cell images were examined to analyze the TDP-43 aggregation reaction and degree of cytotoxicity. The IC50 and toxicity of the compounds were analyzed by nonlinear regression analysis using Prism software (GraphPad). The calculated results for representative compounds are shown in Table 4 below: TDP-43 protein aggregation inhibitory effect and cell viability of novel compounds.

TDP-43 BiFC cells = assay: Cell viability (stained nuclei count) in TDP-43-BiFC cells; conditions: Forskolin-only group = 100%
Description: as §3, §4

Tau = biological target: T2, Tau (Homo sapiens, UniProt P10636); assay: Tau aggregation inhibition in Tau-BiFC cell model (Forskolin-induced)
T2 construct: BiFC fluorescent-protein fragments (two complementary halves on two tau copies); expressed in transfected cells
Description: as §1, §2

[1] = @10 µM, Tau-BiFC cell line, Forskolin-only group = 100%
[2] = Tau-BiFC cell line, Forskolin 30 µM, 48 hours, 0.03-30 µM, read-out: Tau aggregation inhibitory effect IC50
[3] = @3 uM, TDP-43 BiFC cells, Forskolin 30 µM, 48 hours

T1 sequence (Q13148 whole entry, the tested form may be a part): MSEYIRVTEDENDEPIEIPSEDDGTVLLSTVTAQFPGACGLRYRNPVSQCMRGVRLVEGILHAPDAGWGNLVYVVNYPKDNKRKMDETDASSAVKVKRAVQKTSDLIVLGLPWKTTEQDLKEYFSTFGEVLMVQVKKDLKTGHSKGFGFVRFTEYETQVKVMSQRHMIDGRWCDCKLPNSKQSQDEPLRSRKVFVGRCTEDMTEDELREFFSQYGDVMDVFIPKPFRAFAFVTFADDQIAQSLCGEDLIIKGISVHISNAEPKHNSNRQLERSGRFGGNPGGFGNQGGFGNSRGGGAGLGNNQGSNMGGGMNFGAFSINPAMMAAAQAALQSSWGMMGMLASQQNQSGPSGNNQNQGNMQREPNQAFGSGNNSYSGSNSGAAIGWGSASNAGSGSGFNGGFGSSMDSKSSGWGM
T2 sequence (P10636 1-441 isoform P10636-8): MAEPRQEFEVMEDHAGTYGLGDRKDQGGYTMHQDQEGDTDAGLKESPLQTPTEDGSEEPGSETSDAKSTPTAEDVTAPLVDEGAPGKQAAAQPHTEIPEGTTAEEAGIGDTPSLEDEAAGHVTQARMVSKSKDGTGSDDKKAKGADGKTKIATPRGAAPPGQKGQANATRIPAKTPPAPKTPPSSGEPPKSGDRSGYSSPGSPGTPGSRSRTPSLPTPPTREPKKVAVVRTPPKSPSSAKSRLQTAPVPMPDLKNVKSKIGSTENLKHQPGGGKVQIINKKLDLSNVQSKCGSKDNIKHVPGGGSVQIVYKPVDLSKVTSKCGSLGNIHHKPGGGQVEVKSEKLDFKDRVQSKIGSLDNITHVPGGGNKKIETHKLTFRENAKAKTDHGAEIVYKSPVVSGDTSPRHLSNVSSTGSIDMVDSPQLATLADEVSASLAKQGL

Structure (SMILES): N#CC(C#N)=NNc1ccc2nc(N3CCC[C@H](F)C3)oc2c1 [Compound 42, (S)-(2-(3-fluoropiperidin-1-yl)benzo[d]oxazol-6-yl)carbonohydrazonoyl dicyanide]
Cell viability (% @10µM) (Tau-BiFC cells; [1]): 100%
inhibition at 3 µM (TDP-43 protein): 64.7%
Cell viability (%) (@ 3 uM) (TDP-43 BiFC cells): 62.4%
IC50 (Tau): 20 nM

Structure (SMILES): N#CC(C#N)=NNc1ccc2nc(-c3cccs3)sc2c1 [Comparative compound 5, N-(2-(thiophen-2-yl)benzo[d]thiazol-6-yl) carbonohydrazonoyl dicyanide, reference compound]
Cell viability (% @10µM) (Tau-BiFC cells; [1]): 70%
IC50 (Tau): 7300 nM

Structure (SMILES): N#CC(C#N)=NNc1ccc2nc(N3CCC[C@@H](F)C3)oc2c1 [Compound 47, (R)-N-(2-(3-fluoropiperidin-1-yl)benzo[d]oxazol-6-yl)carbonohydrazonoyl dicyanide]
Cell viability (% @10µM) (Tau-BiFC cells; [1]): 100%
IC50 (Tau): 117 nM

Structure (SMILES): CN(C)c1ccc(-c2nc3ccc(NN=C(C#N)C#N)cc3s2)cc1 [Comparative compound 4, N-(2-(4-(dimethylamino)phenyl)benzo[d]thiazol-6-yl) carbonohydrazonoyl dicyanide, reference compound]
Cell viability (% @10µM) (Tau-BiFC cells; [1]): 80%
IC50 (Tau; [2]): 3100 nM

Structure (SMILES): N#CC(C#N)=NNc1ccc2nc(N3CC[C@H](F)C3)oc2c1 [Compound 43, (S)-(2-(3-fluoropyrrolidin-1-yl)benzo[d]oxazol-6-yl)carbonohydrazonoyl dicyanide]
Cell viability (% @10µM) (Tau-BiFC cells; [1]): 100%
inhibition at 3 µM (TDP-43 protein): 92.9%
Cell viability (%) (@ 3 uM) (TDP-43 BiFC cells): 89.0%
IC50 (Tau; read-out: Tau aggregation inhibitory effect IC50, Tau-BiFC cell line, Forskolin 30 µM, 48 hours, 0.03-30 µM): 28 nM

Structure (SMILES): CN(N=C(C#N)C#N)c1ccc2nc(N3C4CCC3COC4)sc2c1 [Compound 36, (2-(3-oxa-8-azabicyclo[3.2.1]octan-8-yl)benzo[d]thiazol-6-yl)(methyl)carbonohydrazonoyl dicyanide]
Cell viability (% @10µM) (Tau-BiFC cells; [1]): 97%
IC50 (Tau): 136 nM

Structure (SMILES): N#CC(C#N)=NNc1ccc2nc(N3CCCC3)oc2c1 [Compound 45, (2-(pyrrolidin-1-yl)benzo[d]oxazol-6-yl)carbonohydrazonoyl dicyanide]
Cell viability (% @10µM) (Tau-BiFC cells; [1]): 98%
IC50 (TDP-43 protein): 371 nM
inhibition at 3 µM (TDP-43 protein): 81.1%
Cell viability (%) (@ 3 uM) (TDP-43 BiFC cells): 73.6%
IC50 (Tau): 4 nM

inhibition at 3 µM (TDP-43 protein; [3]): 66.5%
Structure (SMILES): CC(C)(C)OC(=O)N1CCN(c2nc3ccc(NN=C(C#N)C#N)cc3s2)CC1 [Compound 22, tert-butyl 4-(6-(2-(dicyanomethylene)hydrazinyl)benzo[d]thiazol-2-yl)piperazine-1-carboxylate]
Cell viability (%) (@ 3 uM) (TDP-43 BiFC cells): 130.7%

Structure (SMILES): CC(=O)N(N=C(C#N)C#N)c1ccc2nc(N3CCOCC3)sc2c1 [Compound 37, acetyl(2-morpholinobenzo[d]thiazol-6-yl)carbonohydrazonoyl dicyanide]
Cell viability (% @10µM) (Tau-BiFC cells; [1]): 85%
IC50 (TDP-43 protein): 0.7 nM
inhibition at 3 µM (TDP-43 protein): 91.2%
Cell viability (%) (@ 3 uM) (TDP-43 BiFC cells): 61.3%
IC50 (Tau): 24 nM

Structure (SMILES): N#CC(C#N)=NNc1ccc2nc(N3CCCCC3)oc2c1 [Compound 46, (2-(piperidin-1-yl)benzo[d]oxazol-6-yl)carbonohydrazonoyl dicyanide]
Cell viability (% @10µM) (Tau-BiFC cells; [1]): 100%
IC50 (TDP-43 protein): 320 nM
inhibition at 3 µM (TDP-43 protein): 81.4%
Cell viability (%) (@ 3 uM) (TDP-43 BiFC cells): 73.6%
IC50 (Tau): 16 nM

Structure (SMILES): N#CC(C#N)=NNc1cc2oc(N3CCOCC3)nc2cc1Cl [Compound 19, (5-chloro-2-morpholinobenzo[d]oxazol-6-yl)carbonohydrazonoyl dicyanide]
Cell viability (% @10µM) (Tau-BiFC cells; [1]): 100%
inhibition at 3 µM (TDP-43 protein): 92.6%
Cell viability (%) (@ 3 uM) (TDP-43 BiFC cells): 97.0%
IC50 (Tau): 453 nM

Structure (SMILES): N#CC(C#N)=NNc1ccc2nc(-c3ccc(F)cc3)sc2c1 [Comparative compound 3, N-(2-(4-fluorophenyl)benzo[d]thiazol-6-yl) carbonohydrazonoyl dicyanide, reference compound]
Cell viability (% @10µM) (Tau-BiFC cells; [1]): 50%
IC50 (Tau): 3200 nM

inhibition at 3 µM (TDP-43 protein; [3]): 47.2%
IC50 (Tau; [2]): 36 nM
Structure (SMILES): C[C@@H]1CN(c2nc3ccc(NN=C(C#N)C#N)cc3s2)C[C@H](C)N1C(=O)OC(C)(C)C [Compound 29, (2R,6S)-tert-butyl 4-(6-(2-(dicyanomethylene)hydrazinyl)benzo[d]thiazol-2-yl)-2,6-dimethylpiperazine-1-carboxylate]
Cell viability (% @10µM) (Tau-BiFC cells; 48 h, 10 µM): 97%
Cell viability (%) (@ 3 uM) (TDP-43 BiFC cells): 96.2%

Structure (SMILES): N#CC(C#N)=NNc1ccc2nc(-c3ccccc3)sc2c1 [Comparative compound 2, N-(2-phenylbenzo[d]thiazol-6-yl) carbonohydrazonoyl dicyanide, reference compound]
Cell viability (% @10µM) (Tau-BiFC cells; [1]): 65%
IC50 (Tau): 2800 nM

Structure (SMILES): N#CC(C#N)=NNc1ccc2nc(N3CCCC(F)C3)oc2c1 (stereo not shown) [Compound 44, (2-(3-fluoropiperidin-1-yl)benzo[d]oxazol-6-yl)carbonohydrazonoyl dicyanide]
Cell viability (% @10µM) (Tau-BiFC cells; [1]): 100%
inhibition at 3 µM (TDP-43 protein): 71.1%
Cell viability (%) (@ 3 uM) (TDP-43 BiFC cells): 85.0%
IC50 (Tau): 12 nM
